# Experimental data published in patent US5739291A, “Glutamate receptor antibodies” (The Salk Institute For Biological Studies, priority 1995, dated 1998).
# Read-outs that look alike come from different tables or passages of the source.
# Columns and labels:
# GluR1 = target: T1, GluR1 (Rattus norvegicus, UniProt P19490); test: Voltage-clamp recording in Xenopus oocytes injected with GluR1 in vitro RNA; format: cell-based; conditions: for agonist properties (in words) / inhibition of kainate-evoked depolarizations (in words): each at 1 mM
# T1 construct: expressed in transfected cells; host or cells: Xenopus oocytes injected with GluR1 in vitro sense RNA
# T1 sequence (P19490 19-907 S67T/A248R/S789T): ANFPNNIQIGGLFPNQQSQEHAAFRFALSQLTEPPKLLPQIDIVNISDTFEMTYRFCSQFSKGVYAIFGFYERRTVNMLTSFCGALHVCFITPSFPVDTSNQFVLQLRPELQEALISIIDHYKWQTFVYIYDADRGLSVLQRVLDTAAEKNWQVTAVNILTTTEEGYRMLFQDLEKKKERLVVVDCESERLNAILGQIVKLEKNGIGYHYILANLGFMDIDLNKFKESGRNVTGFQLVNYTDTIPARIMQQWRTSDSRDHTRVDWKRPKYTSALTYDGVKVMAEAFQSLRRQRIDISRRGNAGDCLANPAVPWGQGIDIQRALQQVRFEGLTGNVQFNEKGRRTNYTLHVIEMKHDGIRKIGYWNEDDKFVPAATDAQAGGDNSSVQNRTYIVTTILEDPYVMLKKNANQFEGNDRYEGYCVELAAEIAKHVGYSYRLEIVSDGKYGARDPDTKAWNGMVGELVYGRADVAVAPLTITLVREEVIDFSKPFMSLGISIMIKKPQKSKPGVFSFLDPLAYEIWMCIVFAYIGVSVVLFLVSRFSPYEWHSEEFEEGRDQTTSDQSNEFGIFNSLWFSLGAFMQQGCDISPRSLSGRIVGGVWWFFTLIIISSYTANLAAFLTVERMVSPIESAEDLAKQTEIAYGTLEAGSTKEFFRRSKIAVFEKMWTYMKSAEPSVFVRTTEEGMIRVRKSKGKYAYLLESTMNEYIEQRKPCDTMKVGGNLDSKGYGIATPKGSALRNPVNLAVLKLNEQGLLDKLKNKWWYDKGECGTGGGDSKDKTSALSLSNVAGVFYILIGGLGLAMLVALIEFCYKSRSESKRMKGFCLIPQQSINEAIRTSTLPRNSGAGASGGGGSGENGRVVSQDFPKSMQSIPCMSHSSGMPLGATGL
# Description: Either a λZAP cDNA preparation, or a plasmid containing the cDNA to be tested, are cut downstream from the cDNA insert with a restriction enzyme. The post-restriction digest is digested with Proteinase K and then extracted with two phenol: chloroform (1:1) extractions. The resulting DNA fragments are then ethanol precipitated. The precipitated fragments are mixed with either T3 RNA polymerase (to make sense strand), or T7 RNA polymerase (to make anti-sense strand), plus rATP, rCTP, rGTP, rUTP, and RNase inhibitor. Simultaneously, the RNA transcripts are capped with a sodium diguanosine triphosphate [G(5')ppp(5')G] cap. The water used for the above procedures is treated with diethylpyrocarbonate to inactivate RNases.
# The in vitro synthesized mRNA transcripts are injected into Xenopus oocytes. 50 nl of an RNA solution, 0.2-0.6 mg/ml, is injected into the stage V oocytes. The injected oocytes are incubated at 16° C. in Barth's medium for 2-7 days before they are analyzed for the presence of functional receptors.
# Voltage recordings are made by penetrating the oocyte with a micro-electrode filled with 3M KCl and connected to the bridge circuit of an appropriate voltage clamp unit, e.g., the Dagan 8500 voltage clamp unit. Voltage recordings are preferably obtained with two electrodes, a voltage electrode filled with 3M KCl and a current electrode filled with 0.25M CsCl, 0.25M CsF and 50 mM EGTA (ethylene glycol tetraacetic acid).
# Oocytes employed herein are obtained from ovarian tissue from anesthetized adult female Xenopus. The ovarian tissue is treated with collagenase, 2 mg/ml, for two hours and then the ovarian epithelium and follicular cells are dissected away.
# The plasmid pGluR1 was subsequently rescued from bacteriophage λZAPII-GluR1.
# 3 days prior to the recording. The oocytes were voltageclamped at -70 mV,
# applied by rapid superfusion, with 5 minute intervals between drugs. Peak
# currents were recorded; each number represents the average of 3 recording
# from 3 different oocytes, ± SEM.
# (§1) The data in FIG. 3B represent the responses of oocytes to the indicated agonists measured 3 days after injection with GluR1 (2 ng) or GluR3 (2 ng) RNA or adult rat brain hippocampus poly(A)^+ RNA (~50 ng). All values are normalized to the response obtained with […] and are presented as the mean ± S.E.M. with n≥3 for all measurements.
# GluR5-1 = GluR5-1 (Rattus norvegicus, UniProt P22756); format: cell-based
# GluR5-1, sequence (P22756 with tags, fused parts or gaps K282L/C354W/A355R/A477G/DEL870-898): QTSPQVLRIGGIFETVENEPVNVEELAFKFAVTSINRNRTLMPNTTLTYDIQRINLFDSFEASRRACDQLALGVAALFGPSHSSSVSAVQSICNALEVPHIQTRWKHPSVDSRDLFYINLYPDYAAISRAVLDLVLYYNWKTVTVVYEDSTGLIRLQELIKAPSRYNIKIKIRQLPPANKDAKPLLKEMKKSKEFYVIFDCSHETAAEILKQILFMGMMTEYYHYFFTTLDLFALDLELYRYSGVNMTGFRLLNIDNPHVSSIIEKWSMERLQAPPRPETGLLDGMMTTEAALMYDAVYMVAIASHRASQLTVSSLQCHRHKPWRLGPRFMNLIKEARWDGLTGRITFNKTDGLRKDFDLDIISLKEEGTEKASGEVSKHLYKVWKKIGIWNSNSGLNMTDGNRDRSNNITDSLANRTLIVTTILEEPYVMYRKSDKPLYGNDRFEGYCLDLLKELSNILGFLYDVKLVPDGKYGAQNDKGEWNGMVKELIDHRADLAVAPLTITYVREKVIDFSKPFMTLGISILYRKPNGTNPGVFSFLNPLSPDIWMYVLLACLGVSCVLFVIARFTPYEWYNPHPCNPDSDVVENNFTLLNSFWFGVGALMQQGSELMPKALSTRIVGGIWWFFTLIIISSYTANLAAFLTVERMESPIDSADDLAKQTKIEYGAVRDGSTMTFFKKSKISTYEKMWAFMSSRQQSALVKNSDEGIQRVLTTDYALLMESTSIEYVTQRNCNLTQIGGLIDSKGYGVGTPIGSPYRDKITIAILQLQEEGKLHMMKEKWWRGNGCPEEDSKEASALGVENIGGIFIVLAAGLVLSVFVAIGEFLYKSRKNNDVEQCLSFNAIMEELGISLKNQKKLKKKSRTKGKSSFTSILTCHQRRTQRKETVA
# Description: (§2) In vitro synthesized GluR5-1 and GluR5-2 cRNAs were individually expressed in Xenopus oocytes.
# GluR5-2 = GluR5-2 (Rattus norvegicus, UniProt P22756); format: cell-based
# GluR5-2, sequence (P22756 31-949): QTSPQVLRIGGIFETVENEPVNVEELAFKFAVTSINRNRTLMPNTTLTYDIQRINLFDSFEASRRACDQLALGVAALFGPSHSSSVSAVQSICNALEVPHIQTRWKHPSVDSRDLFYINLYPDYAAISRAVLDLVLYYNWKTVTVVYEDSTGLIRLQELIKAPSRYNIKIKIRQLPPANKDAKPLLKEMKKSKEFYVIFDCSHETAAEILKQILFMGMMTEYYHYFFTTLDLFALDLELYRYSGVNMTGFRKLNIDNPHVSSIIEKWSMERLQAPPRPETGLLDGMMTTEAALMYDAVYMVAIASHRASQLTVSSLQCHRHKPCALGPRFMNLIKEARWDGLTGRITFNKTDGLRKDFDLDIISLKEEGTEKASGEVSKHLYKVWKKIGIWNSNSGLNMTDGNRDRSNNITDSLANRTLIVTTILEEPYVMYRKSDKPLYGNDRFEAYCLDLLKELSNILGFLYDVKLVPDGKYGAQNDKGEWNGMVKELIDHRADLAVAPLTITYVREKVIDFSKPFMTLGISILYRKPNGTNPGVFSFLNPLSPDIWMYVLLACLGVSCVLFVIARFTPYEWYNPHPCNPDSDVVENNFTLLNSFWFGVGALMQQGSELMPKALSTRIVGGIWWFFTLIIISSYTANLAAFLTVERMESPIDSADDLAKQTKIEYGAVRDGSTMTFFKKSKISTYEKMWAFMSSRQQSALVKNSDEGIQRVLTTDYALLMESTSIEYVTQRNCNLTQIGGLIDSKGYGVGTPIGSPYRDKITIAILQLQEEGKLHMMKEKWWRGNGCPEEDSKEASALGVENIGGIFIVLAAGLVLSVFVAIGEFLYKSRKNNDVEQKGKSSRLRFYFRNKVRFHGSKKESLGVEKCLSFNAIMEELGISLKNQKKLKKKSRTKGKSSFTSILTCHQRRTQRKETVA
# Description: as §2
# homomeric GluR6 receptor = target: T2, homomeric GluR6 receptor (Rattus norvegicus, UniProt P42260, I567V/Q621R/Y571C); test: Homomeric GluR6 ion channel in Xenopus oocytes injected with in vitro transcribed RNA; format: cell-based; conditions: for responsiveness of homomeric ion channels: summary statement; for current at -70 mV: 10 μM kainate
# T2 construct: A 4559 base pair cDNA encoding a protein of 884 amino acid residues was engineered from RC11 and RC27; expressed in transfected cells; host or cells: Xenopus oocytes injected with in vitro transcribed GluR6 RNA
# T2 sequence (P42260 with tags, fused parts or gaps I567V/Y571C/Q621R): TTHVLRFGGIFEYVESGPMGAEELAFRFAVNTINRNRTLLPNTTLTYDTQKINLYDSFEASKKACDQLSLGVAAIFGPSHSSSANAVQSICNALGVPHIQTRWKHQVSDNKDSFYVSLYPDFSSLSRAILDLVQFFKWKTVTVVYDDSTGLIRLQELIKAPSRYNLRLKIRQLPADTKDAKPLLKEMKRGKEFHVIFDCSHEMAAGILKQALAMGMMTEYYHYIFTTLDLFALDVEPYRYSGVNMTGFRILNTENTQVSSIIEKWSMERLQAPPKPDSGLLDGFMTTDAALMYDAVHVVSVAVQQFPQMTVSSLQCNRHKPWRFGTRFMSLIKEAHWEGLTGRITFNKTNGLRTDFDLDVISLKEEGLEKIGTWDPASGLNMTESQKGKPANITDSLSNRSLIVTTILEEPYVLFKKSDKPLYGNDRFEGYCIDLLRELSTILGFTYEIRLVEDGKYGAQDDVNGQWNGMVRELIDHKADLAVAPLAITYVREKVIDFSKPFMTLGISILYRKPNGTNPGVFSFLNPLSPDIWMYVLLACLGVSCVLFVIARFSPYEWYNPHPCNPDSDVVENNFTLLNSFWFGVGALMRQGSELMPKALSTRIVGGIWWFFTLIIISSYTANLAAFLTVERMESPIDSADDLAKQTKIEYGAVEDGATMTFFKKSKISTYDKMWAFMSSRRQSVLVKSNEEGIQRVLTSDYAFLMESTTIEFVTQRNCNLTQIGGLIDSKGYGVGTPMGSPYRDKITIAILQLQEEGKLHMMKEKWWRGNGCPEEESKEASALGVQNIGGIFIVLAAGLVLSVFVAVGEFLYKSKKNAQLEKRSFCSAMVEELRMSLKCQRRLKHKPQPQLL
# [1] = target: kainate receptors derived from forebrain mRNA; conditions: read-out: Ki for block of kainate responses; literature value (Verdoorn et al.); cited from earlier work
# kainate receptor = format: cell-based, rat
# Description: A directional cDNA library (λZAPII RTB1; complexity: 8×10^5 elements), consisting of 18 independent sublibraries of 44,000 clones each, was constructed from this poly(A)^+ RNA using the bacteriophage expression vector λZAPII. A pool of in vitro transcripts, comprised of transcripts made separately from all 18 amplified sublibraries, was injected into oocytes. […] Subsequently, pools of 44,000 clones (=the single sublibraries), 4,000, 400 and 40 clones were tested.
# GluR3 = GluR3 (Rattus norvegicus, UniProt P19492); format: cell-based
# GluR3, sequence (P19492 23-888): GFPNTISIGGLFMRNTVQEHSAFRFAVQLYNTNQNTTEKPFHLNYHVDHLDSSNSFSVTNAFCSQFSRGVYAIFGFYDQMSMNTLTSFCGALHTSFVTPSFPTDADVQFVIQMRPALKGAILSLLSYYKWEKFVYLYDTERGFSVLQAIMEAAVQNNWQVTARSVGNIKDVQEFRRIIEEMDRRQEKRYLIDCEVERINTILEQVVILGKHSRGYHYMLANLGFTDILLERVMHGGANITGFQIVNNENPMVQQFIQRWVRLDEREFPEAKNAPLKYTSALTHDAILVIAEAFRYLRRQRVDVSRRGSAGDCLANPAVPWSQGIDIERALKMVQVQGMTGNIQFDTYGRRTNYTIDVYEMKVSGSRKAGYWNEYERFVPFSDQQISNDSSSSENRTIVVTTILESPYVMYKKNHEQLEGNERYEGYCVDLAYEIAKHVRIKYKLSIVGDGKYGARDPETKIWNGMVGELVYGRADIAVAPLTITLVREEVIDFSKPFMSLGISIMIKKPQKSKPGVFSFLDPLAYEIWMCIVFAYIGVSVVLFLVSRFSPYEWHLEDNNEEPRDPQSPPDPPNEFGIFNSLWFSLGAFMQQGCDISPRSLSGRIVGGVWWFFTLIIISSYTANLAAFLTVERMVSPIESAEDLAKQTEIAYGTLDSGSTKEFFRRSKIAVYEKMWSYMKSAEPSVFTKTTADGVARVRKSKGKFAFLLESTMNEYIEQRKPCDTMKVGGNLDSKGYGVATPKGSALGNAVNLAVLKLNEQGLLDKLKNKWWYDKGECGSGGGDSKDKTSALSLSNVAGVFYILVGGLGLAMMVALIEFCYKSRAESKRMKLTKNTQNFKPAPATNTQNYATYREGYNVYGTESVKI
# Description: Thus, oocytes were injected with in vitro synthesized RNA transcripts derived from individual cDNA clones.
# as §1
# [2] = tested on: glutamate receptor subtypes; format: cell-based, rat; conditions: 2-10 days after injection
# [3] = oocytes held at -100 mV, before Con A, AMPA 100 μM
# [4] = QUIS 10 μM, AMPA 50 μM, GLU 100 μM, NMDA 30 μM plus 10 μM glycine, APB 50 μM, -70 mV, 2 ng RNA, 3 days
smiles,measurement,setting,value
O=C(O)C1CN(CCCP(=O)(O)O)CCN1 (centres unmarked) [CPP],agonist properties (in words),GluR1,did not show any agonist properties
same,inhibition of kainate-evoked depolarizations (in words),GluR1,slightly inhibited the KA responses
same,Compound Alone (%): % of the response evoked by 30 μM kainate immediately before drug application,"GluR1; xenopus oocytes, 1000 µM",9.1 ± 0.7%
same,Compound Plus Kainate (%): % of the response seen with 30 μM kainate alone,"GluR1; xenopus oocytes, 1000 µM",78.8 ± 0.9%
"N[C@@H](Cn1oc(=O)[nH]c1=O)C(=O)O [quisqualate, quisqualic acid]",membrane depolarizations elicited,GluR5-1,did not elicit membrane depolarizations
same,membrane depolarizations elicited,GluR5-2,did not elicit membrane depolarizations
same,effect on kainate-evoked current,homomeric GluR6 receptor,attenuated a subsequent kainate evoked current
same,inward current evoked,homomeric GluR6 receptor,activated only small inward currents
"O=C(O)[C@H]1CCCN[C@H]1C(=O)O (relative stereo) [PDA, 2,3cis-piperidine dicarboxylic acid]",inhibition of kainate-evoked depolarizations (in words),GluR1,blocked the GluR1 response
same,Compound Alone (%): % of the response evoked by 30 μM kainate immediately before drug application,"GluR1; xenopus oocytes, 1000 µM",2.5 ± 0.7%
same,Compound Plus Kainate (%): % of the response seen with 30 μM kainate alone,"GluR1; xenopus oocytes, 1000 µM",31.3 ± 2.0%
"Cc1onc(O)c1CC(N)C(=O)O (stereo not drawn) [AMPA, α-amino-3-hydroxy-5-methyl-isoxazole-4-propionic acid]",effect on kainate-evoked current,homomeric GluR6 receptor,nor did it antagonize a kainate-evoked current
same,response of Con A treated oocytes,homomeric GluR6 receptor,did not respond
same,effect of coapplication on kainate-evoked (1 μM) responses,"homomeric GluR6 receptor; AMPA 100 μM, Con A treated oocytes",had no effect
same,inward current evoked,homomeric GluR6 receptor; [3],did not evoke any detectable current
same,responsiveness of homomeric ion channels,homomeric GluR6 receptor,but not to AMPA
"N#Cc1cc2[nH]c(=O)c(=O)[nH]c2cc1[N+](=O)[O-] [CNQX, 6-nitro-7-cyano-quinoxaline-2,3-dione]",block of agonist-evoked responses,homomeric GluR6 receptor,blocked both quisqualate and kainate-evoked responses
same,Ki,[1],295 nM
"N[C@H](CCC(=O)NCC(=O)O)C(=O)O [γ-DGG, D-glutamylglycine]",inhibition of kainate-evoked depolarizations (in words),GluR1,inhibited kainate responses
same,Compound Alone (%): % of the response evoked by 30 μM kainate immediately before drug application,"GluR1; xenopus oocytes, 1000 µM",-0.1 ± 0.5%
same,Compound Plus Kainate (%): % of the response seen with 30 μM kainate alone,"GluR1; xenopus oocytes, 1000 µM",30.8 ± 1.1%
"C/C(=C/C=C/[C@@H](C)C(=O)O)[C@H]1CN[C@H](C(=O)O)[C@H]1CC(=O)O [domoate, domoic acid]",response compared with kainate,kainate receptor; 10 μM domoate vs 100 μM kainate,response similar to the one elicited by 100 μM kainate
NCCc1c[nH]c2ccc(O)cc12 [serotonin],responses evoked by unrelated neurotransmitter receptor agonists,GluR1; concentrations as high as 1 mM,failed to evoke responses
NCC(=O)O [glycine],potentiation of the KA response,GluR1,did not potentiate the KA response
same,responses evoked by unrelated neurotransmitter receptor agonists,GluR1,failed to evoke responses
"C=C(C)[C@H]1CN[C@H](C(=O)O)[C@H]1CC(=O)O [kainate, kainic acid]",desensitization of responses,"GluR1; prolonged (up to 10 minutes) superfusion, 100 μM agonist",did not desensitize
same,current at -70 mV,"homomeric GluR6 receptor; Con A treated, modified Ringer solution (sodium methanesulfonate)",330 nA
same,current at -70 mV,"homomeric GluR6 receptor; Ringer solution, after Con A treatment",2.3 μa
same,current at -70 mV,"homomeric GluR6 receptor; Ringer solution, before Con A treatment",30 nA
same,response of Con A treated oocytes,"homomeric GluR6 receptor; 100 μM aspartate, 100 μM NMDA with 3 μM glycine, 10-1000 μM AMPA",responded
same,time to full recovery from desensitization,homomeric GluR6 receptor; 100 μM kainate for 30 seconds,approximately 15 minutes
same,inward current evoked,homomeric GluR6 receptor; [3],evoked inward currents that desensitized
same,responsiveness of homomeric ion channels,homomeric GluR6 receptor,responsive to KA
"CS(=O)(=O)O [methanesulfonate, sodium methanesulfonate]",reduction of kainate-evoked current,homomeric GluR6 receptor; 95% of Cl- substituted by methanesulfonate,8 fold
"NC(CCCP(=O)(O)O)C(=O)O (centres unmarked) [APV, 2amino-5-phospho-novaleric acid]",agonist properties (in words),GluR1,did not show any agonist properties
same,inhibition of kainate-evoked depolarizations (in words),GluR1,slightly inhibited the KA responses
same,Compound Plus Kainate (%): % of the response seen with 30 μM kainate alone,"GluR1; test compounds 1 mM plus 30 μM kainate, -70 mV, peak currents, average of 3 oocytes ± SEM",73.7 ± 3.2%
same,Compound Alone (%): % of the response evoked by 30 μM kainate immediately before drug application,"GluR1; test compounds 1 mM, kainate 30 μM, -70 mV, peak currents, average of 3 oocytes ± SEM",3.1 ± 1.4%
NCCCC(=O)O [γ-aminobutyric acid],responses evoked by unrelated neurotransmitter receptor agonists,GluR1; concentrations as high as 1 mM,failed to evoke responses
CN1CCCC1c1cccnc1 (centres unmarked) [nicotine],responses evoked by unrelated neurotransmitter receptor agonists,GluR1,failed to evoke responses
"CN[C@H](CC(=O)O)C(=O)O [NMDA, N-methyl-D-aspartic acid]",response to agonist,GluR1,No detectable responses
same,responses evoked by other glutamate receptor agonists,GluR1,evoked no responses
same,agonist properties (in words),GluR1,did not show any agonist properties
same,inhibition of kainate-evoked depolarizations (in words),GluR1,slightly inhibited the KA responses
same,response to agonist,GluR3,No detectable responses
same,membrane depolarizations elicited,GluR5-1,did not elicit membrane depolarizations
same,membrane depolarizations elicited,GluR5-2,did not elicit membrane depolarizations
same,response of Con A treated oocytes,homomeric GluR6 receptor,did not respond
same,response to selective agonists,[2],elicited smooth responses with fast onsets
same,responses detected,kainate receptor,No responses
"CCOC(=O)CC[C@H](N)C(=O)OCC [GDEE, glutamate diethylester]",agonist properties (in words),GluR1,displayed weak agonist properties
same,inhibition of kainate-evoked depolarizations (in words),GluR1,did not block the response significantly
same,Compound Alone (%): % of the response evoked by 30 μM kainate immediately before drug application,"GluR1; xenopus oocytes, 1000 µM",24.8 ± 5.7%
same,Compound Plus Kainate (%): % of the response seen with 30 μM kainate alone,"GluR1; xenopus oocytes, 1000 µM",97.8 ± 6.6%
O=C(O)c1cc(=O)c2ccccc2[nH]1 [Kynurenic acid],inhibition of kainate-evoked depolarizations (in words),GluR1,most potent inhibitor
same,Compound Alone (%): % of the response evoked by 30 μM kainate immediately before drug application,"GluR1; xenopus oocytes, 1000 µM",3.4 ± 0.2%
same,Compound Plus Kainate (%): % of the response seen with 30 μM kainate alone,"GluR1; xenopus oocytes, 1000 µM",9.6 ± 1.3%
"NC(CCP(=O)(O)O)C(=O)O (centres unmarked) [APB, 2-amino-4-phosphonobutyric acid]",response to agonist,GluR1; [4],No detectable responses
same,response to agonist,GluR3; [4],No detectable responses
same,membrane depolarizations elicited,"GluR5-1; AMPA 50 μM, quisqualate 10 μM, APB 100 μM, NMDA 100 μM with 10 μM glycine",did not elicit membrane depolarizations
same,membrane depolarizations elicited,"GluR5-2; KA 100 MM, AMPA 50 μM, quisqualate 10 μM, APB 100 μM, NMDA 100 μM with 10 μM glycine",did not elicit membrane depolarizations
same,response to selective agonists,[2],gave no response
